Experimental data: US9629921B2, “Smart pro-drugs of serine protease inhibitors” (Trustees of Tufts College, priority 2002, dated 2017)
Where “and” joins values, the source holds several entries; their conditions need not be identical. Equal entries are not always repeated. Where two headings read alike, the source gives them in different places. Each block holds one compound with its values, some of them ahead of it.

How the values were obtained:
[1] = target: DPP IV (Homo sapiens, UniProt P27487); assay: In vitro DPP IV enzyme inhibition assay; inhibitors incubated at pH 2 or pH 8, then added to enzyme assay solution at pH 8.0; format: biochemical
DPP IV, sequence (P27487 whole entry, species assumed): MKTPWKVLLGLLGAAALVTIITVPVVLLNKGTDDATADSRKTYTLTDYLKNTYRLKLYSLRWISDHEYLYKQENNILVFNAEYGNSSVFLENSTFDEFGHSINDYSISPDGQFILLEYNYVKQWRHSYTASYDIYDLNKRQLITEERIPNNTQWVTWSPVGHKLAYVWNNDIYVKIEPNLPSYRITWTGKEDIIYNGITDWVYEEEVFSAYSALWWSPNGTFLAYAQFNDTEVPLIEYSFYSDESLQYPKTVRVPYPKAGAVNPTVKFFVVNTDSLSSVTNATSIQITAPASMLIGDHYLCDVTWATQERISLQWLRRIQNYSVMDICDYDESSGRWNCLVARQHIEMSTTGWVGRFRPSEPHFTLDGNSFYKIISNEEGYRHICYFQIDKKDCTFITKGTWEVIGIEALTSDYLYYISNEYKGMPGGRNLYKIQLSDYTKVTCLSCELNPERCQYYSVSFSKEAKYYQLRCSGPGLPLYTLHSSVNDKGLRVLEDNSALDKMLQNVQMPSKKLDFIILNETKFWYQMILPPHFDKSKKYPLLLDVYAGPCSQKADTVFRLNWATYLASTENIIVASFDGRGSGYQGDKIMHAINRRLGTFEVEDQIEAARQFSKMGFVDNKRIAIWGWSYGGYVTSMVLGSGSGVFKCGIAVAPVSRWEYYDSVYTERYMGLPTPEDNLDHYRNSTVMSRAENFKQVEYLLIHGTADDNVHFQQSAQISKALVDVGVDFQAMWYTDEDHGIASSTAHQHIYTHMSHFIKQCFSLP
Protocol: Inhibitors were incubated overnight in pH 2 or pH 8 solutions and then added directly to an enzyme assay solution at pH 8.0.
It is important to note that the x-axis in FIG. 3 refers to the concentration of the SPI, not the concentration of the released Xaa-boroPro.

[2] = target: T1, Serum DPP IV (Rattus norvegicus, UniProt P14740); assay: Serum DPP IV activity in rats as a function of time after dosing; format: in vivo; details: rats, single oral dose of 0.025 mg/kg, average of four rats (FIG. 8)
T1 construct: Serum DPP IV activity in rats as a function of time; from tissue; host or cells: rat serum
T1 sequence (P14740 37-767 limits assumed): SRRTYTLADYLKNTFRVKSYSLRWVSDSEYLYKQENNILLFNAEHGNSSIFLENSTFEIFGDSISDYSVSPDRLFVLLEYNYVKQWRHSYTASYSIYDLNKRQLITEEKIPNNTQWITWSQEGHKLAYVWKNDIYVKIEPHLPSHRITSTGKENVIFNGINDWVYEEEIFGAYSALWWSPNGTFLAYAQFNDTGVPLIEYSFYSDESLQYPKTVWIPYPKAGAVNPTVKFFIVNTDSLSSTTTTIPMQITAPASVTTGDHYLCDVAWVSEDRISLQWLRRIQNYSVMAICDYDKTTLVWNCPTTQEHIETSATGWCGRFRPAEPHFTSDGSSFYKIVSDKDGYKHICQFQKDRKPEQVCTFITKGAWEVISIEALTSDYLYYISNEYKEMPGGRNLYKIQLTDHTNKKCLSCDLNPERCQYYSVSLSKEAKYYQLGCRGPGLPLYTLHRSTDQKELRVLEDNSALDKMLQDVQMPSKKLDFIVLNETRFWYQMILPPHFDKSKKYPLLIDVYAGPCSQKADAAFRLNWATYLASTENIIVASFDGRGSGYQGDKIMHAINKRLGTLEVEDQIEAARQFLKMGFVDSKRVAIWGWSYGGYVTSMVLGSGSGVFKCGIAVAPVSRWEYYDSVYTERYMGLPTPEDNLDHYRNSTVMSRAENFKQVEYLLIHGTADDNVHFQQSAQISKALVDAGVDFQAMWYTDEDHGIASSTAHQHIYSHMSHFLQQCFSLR
Protocol: FIG. 8 Serum DPP IV activity in rats as a function of time following a single oral dose of 0.025 mg/kg. Each bar represents the average of four rats.
Each bar represents the average of four rats.

[3] = test system: male Sprague-Dawley rats; assay: Example 10: clinical signs and mortality after single oral administration in male rats; details: for Clinical Observation: one line per animal, wrapped cell 'Redness of ears' continues 'and paws';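 as to all read-outs here: test articles given by mouth, formulated in deionized Type I water as vehicle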
[4] = target: serum DPP IV (Mus musculus, UniProt P28843); assay: In vivo inhibition of serum DPP IV in db/db mice after oral dose; details: Diabetic-control = 100.00; for activity at 0.0025 mg/kg / activity at 0.01 mg/kg / activity at 0.025 mg/kg: mouse, iv; for activity at 0.0025 mg/kg: read-out: In vivo inhibition of serum DPP IV, 0.0025 mg/kg; for activity at 0.01 mg/kg: read-out: In vivo inhibition of serum DPP IV, 0.01 mg/kg; for activity at 0.025 mg/kg: read-out: In vivo inhibition of serum DPP IV, 0.025 mg/kg
serum DPP IV, sequence (P28843 37-760 limits assumed): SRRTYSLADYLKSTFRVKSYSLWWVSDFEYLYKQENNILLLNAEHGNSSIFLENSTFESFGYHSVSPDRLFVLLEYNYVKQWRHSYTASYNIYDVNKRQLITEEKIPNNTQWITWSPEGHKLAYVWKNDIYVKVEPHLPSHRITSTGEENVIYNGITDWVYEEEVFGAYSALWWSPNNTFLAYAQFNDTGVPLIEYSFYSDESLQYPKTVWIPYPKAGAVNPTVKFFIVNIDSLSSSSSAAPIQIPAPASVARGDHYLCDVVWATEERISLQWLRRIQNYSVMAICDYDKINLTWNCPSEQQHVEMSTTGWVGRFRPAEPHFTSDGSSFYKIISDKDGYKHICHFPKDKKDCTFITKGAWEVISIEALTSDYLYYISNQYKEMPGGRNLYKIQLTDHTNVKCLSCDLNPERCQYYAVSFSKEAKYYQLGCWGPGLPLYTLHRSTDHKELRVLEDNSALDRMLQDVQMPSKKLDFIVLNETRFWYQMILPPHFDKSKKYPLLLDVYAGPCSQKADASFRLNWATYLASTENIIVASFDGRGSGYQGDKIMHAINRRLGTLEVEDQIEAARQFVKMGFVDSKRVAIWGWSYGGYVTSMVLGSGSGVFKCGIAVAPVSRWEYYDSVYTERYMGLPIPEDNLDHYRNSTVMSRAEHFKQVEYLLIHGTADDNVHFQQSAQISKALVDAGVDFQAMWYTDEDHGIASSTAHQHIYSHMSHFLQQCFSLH

[5] = test system: Zucker rats; assay: Toxicity (mortality) after oral dose in rats; format: in vivo
[6] = test system: Diabetic Mice; assay: Toxicity (mortality) of Val-boroPro in diabetic mice; format: in vivo
[7] = pH 2, ten minutes, read-out: IC50 Values at Ten Minutes pH 2
[8] = pH 8, ten minutes, read-out: IC50 Values at Ten Minutes pH 8
[9] = pH 2, read-out: Tetrapeptide Prodrugs (IC50) pH 2
[10] = pH 8, read-out: Tetrapeptide Prodrugs (IC50) pH 8
[11] = 0.5 mg/kg ALA-PRO boronic dose equivalents
[12] = 2.5 mg/kg ALA-PRO boronic dose equivalents
[13] = 10.0 mg/kg ALA-PRO boronic dose equivalents

Compound: CC(NC(=O)C(C)(C)N)C(=O)NC(C(=O)N1CCCC1B(O)O)C(C)C (centres unmarked) [AibAlaValboroPro]
- IC50 [1, 7]: 2000 nM

Compound: CC(N)C(=O)NC(C)C(=O)N1CCCC1C(=O)N1CCCC1B(O)O (centres unmarked) [AlaAlaProboroPro]
- IC50 [1, 7]: 3000 nM

Compound: CC(N)C(=O)NC(C)C(=O)NC(C(=O)N1CCCC1B(O)O)C(C)C (centres unmarked) [AlaAlaValboroPro]
- IC50 [1, 7]: 2000 nM
- IC50 [1, 8]: 25000 nM

Compound: CC(N)C(=O)N1CCCC1C(=O)N1CCCC1C(=O)N1CCCC1B(O)O (centres unmarked) [AlaProProboroPro]
- IC50 [1, 7]: 8300 nM

Compound: CCC(NC(=O)C(C)NC(=O)C(N)C1CCCCC1)C(=O)NC(C)B(O)O (centres unmarked) [ChgAlaEtgboroAla]
- IC50 [1, 7]: 1300 nM
- IC50 [1, 8]: 2500 nM

Compound: CC(NC(=O)C(N)C1CCCCC1)C(=O)N1CCCC1C(=O)N1CCCC1B(O)O (centres unmarked) [ChgAlaProboroPro]
- IC50 [1, 7]: 2000 nM
- IC50 [1, 8]: 30000 nM

Compound: CC(NC(=O)C1CCCN1C(=O)C(N)C1CCCCC1)C(=O)N1CCCC1B(O)O (centres unmarked) [ChgProAlaboroPro, Cyclohexylglycine-Proline-Ala-boroProline]
- Inhibition of serum DPP IV activity compared with Val-boroPro [2]: much less orally active
- Clinical Observation [3, 11]: None
- Clinical Observation [3, 12]: None
- Approximate Time of Sacrifice or Time Animal was Found Dead (hr post-dose) [3, 13]: ~5 h (sacrificed)
- Clinical Observation ([3]; 10.0 mg/kg ALA-PRO boronic dose equivalents, listed as L-2-Chg-PRO-ALA-PRO boronic acid): Redness of ears and Decreased activity and labored breathing and None (2×)
- IC50 [1, 9]: 19 nM
- IC50 [1, 7]: 17 nM
- IC50 [1, 10]: 15 nM
- IC50 [1, 8]: 17 nM
- activity at 0.0025 mg/kg ([4]; 1 hr Post Rx-Glucose): 110%
- activity at 0.0025 mg/kg ([4]; 4 hrs Post Rx-Glucose): 99.5%
- activity at 0.01 mg/kg ([4]; 1 hr Post Rx-Glucose): 100%
- activity at 0.01 mg/kg ([4]; 4 hrs Post Rx-Glucose): 77.5%
- activity at 0.025 mg/kg ([4]; 1 hr Post Rx-Glucose): 111%
- activity at 0.025 mg/kg ([4]; 4 hrs Post Rx-Glucose): 58.9%

Compound: CC(C)(C)[C@H](NC(=O)[C@@H]1CCCN1C(=O)[C@@H](N)C1CCCCC1)C(=O)N1CCC[C@H]1B(O)O [ChgProBugboroPro]
- IC50 [1, 7]: 1500 nM
- IC50 [1, 8]: 8000 nM

Compound: CC(NC(=O)C(NC(=O)C1CCCN1C(=O)C(N)C1CCCCC1)C(C)(C)C)B(O)O (centres unmarked) [ChgProtBugboroAla]
- IC50 [1, 7]: 6800 nM
- IC50 [1, 8]: 8400 nM

Compound: NCC(=O)N1CCCC1C(=O)N1CCCC1C(=O)N1CCCC1B(O)O (centres unmarked) [GlyProProboroPro]
- IC50 [1, 9]: 9000 nM
- IC50 [1, 7]: 8600 nM
- IC50 [1, 8]: 20000 nM

Compound: CNC(Cc1ccccc1)C(=O)N1CCCC1C(=O)NC(C)C(=O)N1CCCC1B(O)O (centres unmarked) [N—Me-PheProAlaboroPro, N-Me-Phe-PRO-ALA-PRO Boronic Acid]
- Clinical Observation [3, 11]: None
- Approximate Onset of Observation (Time post-dose) [3, 12]: ~2 h
- Clinical Observation [3, 12]: Redness of ears and None (2×)
- Approximate Onset of Observation (Time post-dose) [3, 13]: ~4 h
- Clinical Observation [3, 13]: None (2×) and Redness of ears
- IC50 [1, 7]: 2000 nM
- IC50 [1, 8]: 2700 nM

Compound: O=C(C1CCCN1)N1CCCC1B(O)O (centres unmarked) [Pro-boroPro, reference compound]
- pH dependence of DPP IV inhibition ([1]; pre-incubated at low pH vs high pH (FIG. 3, FIG. 64, Table 1)): more effective as inhibitors of DPP IV when pre-incubated at low pH than at high pH

Compound: O=C(C1CCCN1C(=O)C1CCCN1C(=O)C1CCCN1)N1CCCC1B(O)O (centres unmarked) [ProProProboroPro]
- IC50 [1, 9]: 10000 nM
- IC50 [1, 7]: 10000 nM

Compound: NC(Cc1ccc(O)cc1)C(=O)N1CCCC1C(=O)NC(Cc1ccccc1)C(=O)N1CCCC1B(O)O (centres unmarked) [TyrProPheboroPro]
- IC50 ([1]; IC50 Values at Ten Minutes pH 2, pH 2, ten minutes): 50 nM
- IC50 ([1]; IC50 Values at Ten Minutes pH 8, pH 8, ten minutes): 60 nM

Compound: CC(C)[C@H](N)C(=O)N1CCC[C@H]1B(O)O [Val-boroPro]
- MORTALITY ([5]; 0.035 mg/kg Oral, Zucker Lean, 4 animals dosed, project 002969): 1
- MORTALITY ([5]; 0.035 mg/kg Oral, Zucker Obese, 4 animals dosed, project 002969): 4
- MORTALITY ([5]; 0.35 mg/kg Oral, Zucker Lean, 4 animals dosed, project 002969): 4
- MORTALITY ([5]; 0.35 mg/kg Oral, Zucker Obese, 4 animals dosed, project 002969): 4
- MORTALITY ([5]; 1.75 mg/kg Oral, Zucker Lean, 4 animals dosed, project 002969): 2
- MORTALITY ([5]; 1.75 mg/kg Oral, Zucker Obese, 4 animals dosed, project 002969): 2
- MORTALITY ([5]; 5 mg/kg Oral, Zucker Lean, 3 animals dosed, project 002898): 3
- MORTALITY ([5]; 5 mg/kg Oral, Zucker Obese, 4 animals dosed, project 002898): 4
- Mortality (rats killed) ([5]; Zucker rats, dose of 0.035 mg/kg): four out of four
- Toxicity to rats ([5]; rats): quite toxic to rats
- In vivo inhibition of serum DPP IV ([4]; 0.0025 mg/kg, 1 hr Post Rx-Glucose): 94.52
- In vivo inhibition of serum DPP IV ([4]; 0.0025 mg/kg, 4 hrs Post Rx-Glucose): 93.30
- In vivo inhibition of serum DPP IV ([4]; 0.01 mg/kg, 1 hr Post Rx-Glucose): 59.36
- In vivo inhibition of serum DPP IV ([4]; 0.01 mg/kg, 4 hrs Post Rx-Glucose): 58.85
- In vivo inhibition of serum DPP IV ([4]; 0.025 mg/kg, 1 hr Post Rx-Glucose): 47.49
- In vivo inhibition of serum DPP IV ([4]; 0.025 mg/kg, 4 hrs Post Rx-Glucose): 39.23
- MORTALITY ([6]; 0.035 mg/kg, Diabetic Mice (starved), 8 animals dosed, project 011050): 0
- MORTALITY ([6]; 0.035 mg/kg, Diabetic Mice, 7 animals dosed, project 010757): 0
- MORTALITY ([6]; 0.035 mg/kg, Diabetic Mice, 8 animals dosed, project 011050 group 3): 0
- MORTALITY ([6]; 0.35 mg/kg, Diabetic Mice, 7 animals dosed, project 010757): 0
- Toxic effect in mice ([6]; 3.5 mg/kg): no noticeable toxic effect
- MORTALITY ([6]; 3.5 mg/kg, Diabetic Mice, 7 animals dosed, project 010757): 0
- Toxicity to mice ([6]; mice): apparently not at all

Continued by falling IC50 [1, 7], values first:

- IC50 [1, 7]: 600 nM
- IC50 [1, 8]: 802 nM
Compound: CCC(NC(=O)C(C)NC(=O)C(N)C1CCCCC1)C(=O)N1CCCC1B(O)O (centres unmarked) [ChgAlaEtgboroPro]

- IC50 [1, 9]: 190 nM
- IC50 [1, 7]: 190 nM
- IC50 [1, 10]: 360 nM
- IC50 [1, 8]: 360 nM
Compound: CC(NC(=O)C(N)C1CCCCC1)C(=O)NC(C(=O)N1CCCC1B(O)O)C(C)C (centres unmarked) [ChgAlaValboroPro]

- IC50 [1, 9]: 180 nM
- IC50 [1, 7]: 180 nM
- IC50 [1, 10]: 170 nM
- IC50 [1, 8]: 170 nM
Compound: CC(NC(=O)C(NC(=O)C1CCCN1C(=O)C(N)C1CCCCC1)C1CCCCC1)B(O)O (centres unmarked) [ChgProChgboroAla]

- IC50 [1, 9]: 20 nM
- IC50 [1, 7]: 20 nM
- IC50 [1, 10]: 21 nM
- IC50 [1, 8]: 21 nM
Compound: CC(N)C(=O)N1CCCC1C(=O)NC(C(=O)N1CCCC1B(O)O)C(C)C (centres unmarked) [AlaProValboroPro]

- IC50 [1, 7]: 19 nM
- IC50 [1, 8]: 14 nM
Compound: ChgPipEtgboroPro

- IC50 [1, 7]: 17 nM
- IC50 [1, 8]: 25 nM
Compound: CCC(NC(=O)C1CC(O)CN1C(=O)C(N)C1CCCCC1)C(=O)N1CCCC1B(O)O (centres unmarked) [ChgHypEtgboroPro]

- IC50 [1, 9]: 17 nM
- IC50 [1, 7]: 17 nM
- IC50 [1, 10]: 46 nM
- IC50 [1, 8]: 46 nM
Compound: CC(C)C(NC(=O)C1CCCN1C(=O)CN)C(=O)N1CCCC1B(O)O (centres unmarked) [GlyProValboroPro]

- IC50 [1, 7]: 15 nM
- IC50 [1, 8]: 16 nM
Compound: CCC(NC(=O)C1CCN1C(=O)C(N)C1CCCCC1)C(=O)N1CCCC1B(O)O (centres unmarked) [ChgAzeEtgboroPro]

- IC50 [1, 7]: 15 nM
- IC50 [1, 8]: 17 nM
Compound: CC(NC(=O)C1CCCN1C(=O)C(N)Cc1ccc(O)cc1)C(=O)N1CCCC1B(O)O (centres unmarked) [TyrProAlaboroPro, Tyrosine-Proline-Alanine-Proline Boronic Acid]

- IC50 [1, 7]: 15 nM
- IC50 [1, 8]: 17 nM
Compound: ChgDhpEtgboroPro

- IC50 [1, 7]: 14 nM
- IC50 [1, 8]: 14 nM
Compound: NC(C(=O)N1CCCC1C(=O)NC(C(=O)N1CCCC1B(O)O)C1CCCCC1)C1CCCCC1 (centres unmarked) [ChgProChgboroPro]

- IC50 [1, 7]: 14 nM
- IC50 [1, 8]: 18 nM
Compound: CC(NC(=O)C1CCCN1C(=O)C(N)C(C)(C)C)C(=O)N1CCCC1B(O)O (centres unmarked) [tBugProAlaboroPro]

- IC50 [1, 7]: 13 nM
- IC50 [1, 8]: 16 nM
Compound: CC[C@H](NC(=O)[C@@H]1CSCN1C(=O)[C@@H](N)C1CCCCC1)C(=O)N1CCC[C@H]1B(O)O [ChgThz4EtgboroPro]

- IC50 [1, 7]: 12 nM
- IC50 [1, 8]: 14 nM
Compound: CCC(NC(=O)C1CCCN1C(=O)C(N)C1CCCCC1)C(=O)N1CCCC1B(O)O (centres unmarked) [ChgProEtgboroPro]

- IC50 [1, 7]: 6 nM
- IC50 [1, 8]: 8 nM
Compound: CC(NC(=O)C1CCCN1C(=O)C(N)Cc1ccccc1)C(=O)N1CCCC1B(O)O (centres unmarked) [PheProAlaboroPro, Phenylalanine-Proline-Alanine-Proline Boronic Acid]
